From US10744150B2, “Cyclic dinucleotides as anticancer agents” (BRISTOL-MYERS SQUIBB COMPANY, priority 2017, dated 2020) come the findings set out here.

Each structure is given as a SMILES string. Read-outs that look alike come from different tables or passages of the source.

Broadly, the EC50 is the midpoint of the concentration-response curve. One may read the IC50 as the concentration that inhibits the measured activity by half.

The subject of one assay is IRF3. Nature of the assay: STING THP1 reporter assay, IRF pathway (secreted luciferase Lucia, QUANTI-Luc). The class given is cell-based. As to conditions: THP1-Dual cells, 10% human plasma, 100% activation = 100 μM cGAMP, luciferase readout, read-out: THP1 Reporter Assays EC50 IRF3. The text has this: (§1) THP1-Dual™ cells were derived from the human THP-1 monocyte cell line by stable integration of two inducible reporter constructs. To this end, THP1-Dual™ cells allow the simultaneous study of the NF-κB pathway, by monitoring the activity of SEAP, and the IRF pathway by assessing the activity of a secreted luciferase (Lucia). Both reporter proteins are readily measurable in the cell culture supernatant when using QUANTI-Blue™, a SEAP detection reagent, and QUANTI-Luc™, a luciferase detection reagent.
(§2) THP1-Dual™ cells induce the activation of NF-κB in response to STING agonists. They also trigger the IRF pathway upon stimulation with STING agonists, such as cGAMP. Here, the THP-1-Dual cells were used to assess STING binders for function on the cellular level.
(§3) Serial dilutions of compounds in DMSO were added to low volume 384 well plates at 100 nl/well using an ECHO acoustic dispenser (Labcyte, model 550) to achieve final starting concentration of 100 μM in cell suspension. THP-1 Dual™ STING reporter cells (Invivogen, Dual cells cat # THPD-nfis) were added to the plates with compounds at 15,000 cells in 10 μL per well in RPMI media (Gibco, cat #11875) containing 10% human plasma in a low volume 384-well black wall clear bottom tissue culture plate (Corning, cat #3542) for SEAP assay and low volume solid white plate (Corning, cat #3826) for luciferase assay. One column of the plate was reserved for treatment with cGAMP at 100 μM for 100% activation calculation and one column for no treatment (DMSO only) for baseline activation. Plates were then incubated in 37° C. incubator at 5% CO2 for 20 hours.
(§4) In the SEAP assay, 5 μl of 2× QuantiBlue (Invivogen, cat # Rep-qb2) is added to 384 well black plates seeded with THP1 cells and incubated at 37° C. for 2 hours. Plates were read on the Envision (Perkin Elmer) at 620 nm wavelength (OD620). In the luciferase assay, 5 μl of Quantiluc (Invivogen, Rep-qlc2) is added to white 384 well plates seeded with THP1 cells and read at 5 minutes on the Envision (Perkin Elmer) using a luminescence protocol (RLU). For both cell lines, 100% activation was determined by value (RLU) of THP-1 Dual STING cells stimulated with 100 μM cGAMP (Invivogen, cat # TLRL-NACGA23-5).
Background: In a reporter assay the amount or activity of a reporter protein is the signal.

The subject of another assay is NFkB. The assay is described as follows: STING THP1 reporter assay, NF-κB pathway (SEAP, QUANTI-Blue). The class given is cell-based. As to conditions: THP1-Dual cells, 10% human plasma, 100% activation = 100 μM cGAMP.
From the text: as §1, §2, §3, §4

In assay [1] the target is T1, STING WT: His-TVMV-S-hSTING(155-341)-H232R (Homo sapiens, UniProt Q86WV6, H232R).
T1 construct: His-TVMV-S-hSTING(155-341)-H232R
Nature of the assay: STING HTRF binding assay (time resolved FRET competition), STING WT. As to conditions: 20 nM His-tagged STING cytoplasmic domain, 200 nM fluorescein-labeled cGAMP analog probe, one hour; read-out: HTRF Binding Assays IC50 STING WT. The method, then:
(§5) A time resolved FRET-based competition binding assay was used to assess test article binding to STING WT and STING AQ. His-tagged STING cytoplasmic domain (WT or AQ) at a concentration of 20 nM was incubated with 2.5 nM Tb-labeled anti-His antibody, test compound, and fluorescein-labeled cGAMP analog probe (BioLog cat. no. C195) at a concentration of 200 nM (STING WT) or 40 nM (STING AQ) in PBS containing 0.005% Tween-20 and 0.1% BSA for one hour. Fluorescence at 495 nm and 520 nm was measured using an EnVision microplate reader to quantify FRET between Tb-labeled anti-His antibody and fluorescein-labeled probe. Background was defined as the signal obtained in the absence of STING protein, and background subtracted FRET ratios were normalized to the maximum signal obtained in the absence of test compound. These values were converted to a percent inhibition. Percent inhibition was determined for test compounds at 11 concentrations. The IC50, defined as the concentration of competing test compound needed to reduce specific binding of the probe by 50%, was calculated using the 4 parameter logistic equation to fit the data

Assay [2] has as its target T2, STING AQ: His-TVMV-S-hSTING(155-341)-G230A-R293Q (Homo sapiens, UniProt Q86WV6, G230A/H232R/R293Q).
T2 construct: His-TVMV-S-hSTING(155-341)-G230A-R293Q
Nature of the assay: STING HTRF binding assay (time resolved FRET competition), STING AQ. As to conditions: 20 nM His-tagged STING cytoplasmic domain, 40 nM fluorescein-labeled cGAMP analog probe, one hour; read-out: HTRF Binding Assays IC50 STING AQ. The method, then:
as §5
(TR-FRET usually uses a lanthanide donor and a delayed reading to cut background.)

Setting [3] is: 20 hours, SEAP readout OD620, read-out: THP1 Reporter Assays EC50 NFkB.
[4] abbreviates: Homo sapiens, THP-1, 20 h, SEAP readout OD620, read-out: THP1 Reporter Assays EC50 NFkB.

T2 sequence (Q86WV6 with tags, fused parts or gaps G230A/H232R/R293Q): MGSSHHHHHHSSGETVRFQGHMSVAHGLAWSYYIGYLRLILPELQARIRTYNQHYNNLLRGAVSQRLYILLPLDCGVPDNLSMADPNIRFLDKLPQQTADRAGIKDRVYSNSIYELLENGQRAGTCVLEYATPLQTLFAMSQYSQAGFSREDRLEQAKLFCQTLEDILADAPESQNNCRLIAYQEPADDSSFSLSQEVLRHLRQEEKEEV
T1 sequence (Q86WV6 with tags, fused parts or gaps H232R): as the sequence (Q86WV6 with tags, fused parts or gaps G230A/H232R/R293Q) above, with A99G, Q162R counted along it

With `Nc1ncnc2c1ncn2[C@@H]1C[C@@H]2COP(=O)(S)O[C@H]3[C@@H](F)[C@H](n4cnc5c(N)ncnc54)O[C@@H]3COP(=O)(S)OC[C@H]21` (single isomer, unassigned) [Example 1-1], the EC50 in the assay on IRF3 (20 hours) and in the assay with NFkB (setting [3]) was above 100 µM throughout. Moreover, the IC50 in assay [1] was 1.6 µM; in assay [2] it was 0.06 µM.
As for `Nc1ncnc2c1ncn2[C@@H]1C[C@@H]2COP(=O)(S)O[C@H]3[C@@H](F)[C@H](n4cnc5c(N)ncnc54)O[C@@H]3COP(=O)(S)OC[C@H]21` (single isomer, unassigned) [Example 1-2], the EC50 came out at 3 µM with IRF3 (20 hours) and 6 µM with NFkB (setting [3]). The IC50 in assay [1] turned out to be 0.09 µM; in assay [2], 0.01 µM.
The matching figures for `Nc1ncnc2c1ncn2[C@@H]1C[C@@H]2COP(=O)(S)O[C@H]3[C@@H](F)[C@H](n4cnc5c(N)ncnc54)O[C@@H]3COP(=O)(S)OC[C@H]21` (single isomer, unassigned) [Example 2-1]: above 100 µM, above 100 µM, 24 µM and 0.21 µM.
In the case of `Nc1ncnc2c1ncn2[C@@H]1C[C@@H]2COP(=O)(S)O[C@H]3[C@@H](F)[C@H](n4cnc5c(N)ncnc54)O[C@@H]3COP(=O)(S)OC[C@H]21` (single isomer, unassigned) [Example 2-2], the EC50 in the assay with IRF3 (20 hours) was 85 µM; with NFkB (setting [3]) it was above 100 µM. Besides, the IC50 in assay [1] came to 0.88 µM; in assay [2] it was 0.01 µM.
As to `Nc1ncnc2c1ncn2[C@@H]1O[C@@H]2COP(O)(=S)OC[C@@H]3[C@@H](COP(O)(=S)O[C@H]2[C@H]1F)C[C@H]3n1cnc2c(O)nc3nccn3c21` (single isomer, unassigned) [Example 3-1], the EC50 in the assay with IRF3 (20 hours) and in the assay with NFkB (setting [3]) was above 100 µM in each case. For the same compound, the results for the IC50 in assay [1] and in assay [2] were 15 µM and 0.43 µM, respectively.
Take `Nc1ncnc2c1ncn2[C@@H]1O[C@@H]2COP(O)(=S)OC[C@@H]3[C@@H](COP(O)(=S)O[C@H]2[C@H]1F)C[C@H]3n1cnc2c(O)nc3nccn3c21` (single isomer, unassigned) [Example 3-2]: the EC50 in the assay with IRF3 (20 hours) and with NFkB (setting [3]) was above 100 µM in each case. For the same compound, the IC50 in assay [1] amounted to 4 µM; in assay [2] it was 0.46 µM.
For the compound `Nc1ncnc2c1ncn2[C@@H]1O[C@@H]2COP(O)(=S)OC[C@@H]3[C@@H](COP(O)(=S)O[C@H]2[C@H]1F)C[C@H]3n1cnc2c(O)nc3nccn3c21` (single isomer, unassigned) [Example 3-3], the EC50 came to 33 µM in the assay with IRF3 (20 hours) and 58 µM in the assay with NFkB (setting [3]). In addition, the IC50 in assay [1] worked out at 0.18 µM; in assay [2] it was 0.14 µM.
For the compound `Nc1ncnc2c1ncn2[C@@H]1O[C@@H]2COP(O)(=S)OC[C@@H]3[C@@H](COP(O)(=S)O[C@H]2[C@H]1F)C[C@H]3n1cnc2c(O)nc3nccn3c21` (single isomer, unassigned) [Example 3-4], the EC50 in the assay on IRF3 (20 hours) stood at 31 µM; in the assay on NFkB (setting [3]), 40 µM. In addition, the IC50 in assay [1] is 1 µM; in assay [2] it was 0.09 µM.
For `Nc1ncnc2c1ncn2[C@@H]1C[C@@H]2COP(O)(=S)O[C@@H]3[C@H](O)[C@@H](COP(O)(=S)OC[C@H]21)O[C@H]3n1cnc2c(N)ncnc21` (single isomer, unassigned) [Example 4-1], the EC50 is above 100 µM in the assay on IRF3 (Homo sapiens, THP-1, 20 h) and above 100 µM with NFkB (setting [4]). The IC50 was above 100 µM in assay [1] and 2.8 µM in assay [2].
In the case of `Nc1ncnc2c1ncn2[C@@H]1C[C@@H]2COP(O)(=S)O[C@@H]3[C@H](O)[C@@H](COP(O)(=S)OC[C@H]21)O[C@H]3n1cnc2c(N)ncnc21` (single isomer, unassigned) [Example 4-2], the results for the EC50 in the assay with IRF3 (20 hours) and in the assay on NFkB (setting [3]) were 72 µM and 87 µM, respectively. The values for the IC50 in assay [1] and in assay [2] were 3.7 µM and 0.05 µM, respectively.
Regarding `Nc1ncnc2c1ncn2[C@@H]1O[C@@H]2COP(O)(=S)OC[C@@H]3[C@@H](COP(O)(=S)O[C@H]2[C@H]1F)C[C@H]3n1cnc2c(=O)[nH]cnc21` (single isomer, unassigned) [Example 5-1], the EC50 in the assay with IRF3 (20 hours) and with NFkB (setting [4]) was above 100 µM in each case. Besides, the figures for the IC50 in assay [1] and in assay [2] were 5.7 µM and 0.1 µM, respectively.
Turning to `Nc1ncnc2c1ncn2[C@@H]1O[C@@H]2COP(O)(=S)OC[C@@H]3[C@@H](COP(O)(=S)O[C@H]2[C@H]1F)C[C@H]3n1cnc2c(=O)[nH]cnc21` (single isomer, unassigned) [Example 5-2], the EC50 in the assay with IRF3 (20 hours) and with NFkB (setting [3]) was above 100 µM in each case. Further, the IC50 in assay [1] worked out at 0.44 µM; in assay [2], 0.02 µM.
`Nc1ncnc2c1ncn2[C@@H]1O[C@@H]2COP(O)(=S)OC[C@@H]3[C@@H](COP(O)(=S)O[C@H]2[C@H]1F)C[C@H]3n1cnc2c(=O)[nH]cnc21` (single isomer, unassigned) [Example 5-3]: the EC50 in the assay on IRF3 (20 hours) and in the assay with NFkB (setting [3]) was above 100 µM throughout. The results for the IC50 in assay [1] and in assay [2] were 2.7 µM and 0.04 µM, respectively.
Turning to `Nc1ncnc2c1ncn2[C@@H]1C[C@@H]2COP(O)(=S)O[C@H]3C[C@H](n4ccc5c(Cl)ncnc54)O[C@@H]3COP(=O)(S)OC[C@H]21` (single isomer, unassigned) [Example 6-2], the half-maximal effective concentration (EC50) with IRF3 (20 hours) is above 100 µM. The IC50 in assay [1] was above 100 µM; in assay [2], 82.6 µM.
For `Nc1ncnc2c1ncn2[C@@H]1C[C@@H]2COP(O)(=S)O[C@H]3C[C@H](n4ccc5c(Cl)ncnc54)O[C@@H]3COP(=O)(S)OC[C@H]21` (single isomer, unassigned) [Example 6-3], the concentration for a half-maximal effect (EC50) with IRF3 (20 hours) is above 100 µM. In addition, the IC50 in assay [1] is above 100 µM; in assay [2], 31.9 µM.
On to `Nc1ncnc2c1ncn2[C@@H]1C[C@@H]2COP(O)(=S)O[C@H]3C[C@H](n4ccc5c(Cl)ncnc54)O[C@@H]3COP(=O)(S)OC[C@H]21` (single isomer, unassigned) [Example 6-4], for which the EC50 with IRF3 (20 hours) is above 100 µM. In addition, the figures for the IC50 in assay [1] and in assay [2] were above 100 µM and 14.8 µM, respectively.
Take `Nc1ncnc2c1ncn2[C@@H]1C[C@@H]2COP(O)(=S)O[C@H]3[C@H](F)[C@H](n4ccc5c(Cl)ncnc54)O[C@@H]3COP(O)(=S)OC[C@H]21` (single isomer, unassigned) [Example 7-2]: the EC50 in the assay on IRF3 (20 hours) and in the assay on NFkB (setting [3]) was above 100 µM each time. In addition, the IC50 in assay [1] was above 100 µM.
As for `Nc1ncnc2c1ccn2[C@@H]1O[C@@H]2COP(O)(=S)OC[C@@H]3[C@@H](COP(O)(=S)O[C@H]2[C@@H]1F)C[C@H]3n1cnc2c(N)ncnc21` (single isomer, unassigned) [Example 8-1], the EC50 in the assay on IRF3 (Homo sapiens, THP-1, 20 h) was above 100 µM; in the assay with NFkB (setting [3]), 23 µM. In assay [1], the IC50 was above 100 µM.
